This is an account of results in patent publication US20160324795A1, “SILIBININ NANOPARTICLE AND A METHOD OF TREATING HEPATITIS C THEREOF” (Kaohsiung Medical University, priority 2014, published 2016).

One data set relates to hepatitis C virus. Description: HCVcc infectivity in Huh-7 cells infected by hepatitis C virus (luminescence). It counts as cell-based. Here is the method: Huh-7 cells are infected by hepatitis C virus for 3 hours. After infection, surplus hepatitis C virus are washed, followed by adding a medium with 10% fetal bovine serum (FBS) and the treatment shown in TABLE 5 for 72 hours. The resulting media is collected and the luminescence level is analyzed to evaluate HCVcc infectivity. Specifically, group F2 is treated with dimethyl sulfoxide (DMSO), group F3 is treated with interferon-α (IFN-α), a conventional medication for treating hepatitis C, group F4 is treated with PVP, group F5 is treated with the conventional silibinin dissolved in DMSO, group F6 is treated with the conventional silibinin dissolved in water, and group F7 is treated with the silibinin nanoparticle of the invention dissolved in water.

The test system of data set [1] is Sprague-Dawley (SD) male rats. The data set is described as follows: Safety test in SD rats, administration via gastrostomy for 15 days. The following applies: rat, in vivo. Here is the method:
(§1) Sprague-Dawley (SD) male rats (6 week-old) purchased from BioLASCO Taiwan Co., Ltd. are used in trials (D) and (E). The SD rats are housed on a 12-hours light and 12-hours dark cycle in an animal room kept at a constant temperature of 25±1° C. and constant humidity of 55±5%. The SD rats are housed for several days before being administered the silibinin nanoparticle of the invention via gastrostomy in a dosage shown in TABLE 3.
With reference to FIG. 6B, after being administered the silibinin nanoparticle of the invention for 15 days, all of the SD rats of groups D0 to D2 show a similar trend of increasing body weights.

Data set [2] can be described thus: Solubility in solutions mimicking blood (pH 7.4) and stomach (pH 1.2). It counts as physicochemical. The following applies: pH 7.4, after 120 minutes. From the text:
A solution with pH 7.4 mimics the environment of the blood and a solution with pH 1.2 mimics the environment of the stomach.
That is, compared with the conventional silibinin, the silibinin nanoparticle of the invention has improved blood solubility.

Data set [3] is described as follows: Tissue silibinin concentration in SD rats 24 hours after administration by HPLC. In kind it is in vivo, rat. Here is the method:
as §1
Furthermore, after being administered silibinin or silibinin nanoparticle for 24 hours, the SD rats of groups E1 and E2 are dissected and organs of heart, liver, spleen, lung, and kidney are collected. The collected organs are homogenized by a saline buffer, followed by extraction of silibinin with acetonitrile. The extracted silibinin is analyzed by HPLC.

Data set [4] in a line: Serum silibinin concentration in SD rats by HPLC. In kind it is in vivo, rat. Here is the method:
as §1
After administration for 5, 15, 30, 60, 120, 360, 720, and 1440 minutes, 0.5 mL of blood samples are collected. The blood samples stand at room temperature for coagulation, followed by centrifugation to obtain serum. High-performance liquid chromatography (HPLC) is performed to analyze serum silibinin concentration.

Setting [5] is: 100 mg/kg silibinin (nanoparticle 200 mg/kg with 100 mg of silibinin).

In the data set with hepatitis C virus (72 hours treatment), IFN-α gave an HCVcc infectivity of 4.2 log10 RLU.

`COc1cc(C2Oc3cc(C4Oc5cc(O)cc(O)c5C(=O)C4O)ccc3OC2CO)ccc1O` (centres unmarked) [silibinin, 3,5,7-trihydroxy-2-[3-(4-hydroxy-3-methoxyphenyl)-2-(hydroxymethyl)-2,3-dihydro-1,4-benzodioxin-6-yl]-2,3-dihydrochromen-4-one]: in data set [1], the “safe dosage (as silibinin content)” value was 5 mg/kg body weight per day. The “dissolution in solution mimicking the environment of the blood” value in data set [2] is listed as “cannot dissolve”. For the same molecule, the “tissue distribution of silibinin (heart, liver, spleen, lung, kidney)” value in data set [3] was “silibinin only exists in the lung”. The HCVcc infectivity in the data set with hepatitis C virus (72 hours, dissolved in DMSO) is reported as 4.9 log10 RLU. Also, in data set [4] (setting [5]), the “highest level of serum silibinin concentration” value was found to be 170 ng/mL and the “time to highest level of serum silibinin concentration” value was found to be 15 min. The concentration at 1440 minutes in data set [4] (male, Sprague-Dawley, rat, serum, 100 mg/kg body weight/day, 1440 minutes after administration) stood at 0 ng/mL.
